Assay results as given in US4140785A, “N-(benzothienopyrazol)amide antirhinoviral agents” (E. I. Du Pont de Nemours and Company, priority 1978, dated 1979).
Converted amounts (≈) assume the structure as drawn. Where two headings read alike, the source gives them in different places.

Experiments:
[1] = test system: smallpox; conditions: cited from earlier work
[2] = test system: Rhinovirus 1425; assay: Plaque inhibition in HeLa cells, rhinovirus 1425; conditions: Enterovirus, read-out: Minimum Inhibitory Concentration (MIC)
[3] = test system: Rhinovirus type 39; assay: Plaque inhibition in HeLa cells, rhinovirus type 39; conditions: for MIC: Enterovirus; for Plaque counts per plate: type 39, untreated 112
[4] = test system: Rhinovirus type 14; assay: Plaque inhibition in HeLa cells, rhinovirus type 14; conditions: for MIC: Enterovirus; for Plaque counts per plate: type 14, untreated 194
[5] = test system: Rhinovirus type 13; assay: Plaque inhibition in HeLa cells, rhinovirus type 13; conditions: Enterovirus, read-out: Minimum Inhibitory Concentration (MIC)
[6] = test system: Rhinovirus 998; assay: Plaque inhibition in HeLa cells, rhinovirus 998; conditions: for MIC: Enterovirus; for Plaque counts per plate: 998, untreated 190
[7] = test system: Rhinovirus type 5; assay: Plaque inhibition in HeLa cells, rhinovirus type 5; conditions: Enterovirus, read-out: Minimum Inhibitory Concentration (MIC)
[8] = test system: Rhinovirus type 3; assay: Plaque inhibition in HeLa cells, rhinovirus type 3; conditions: for MIC: Enterovirus; for Plaque counts per plate: type 3, untreated 170
[9] = test system: Rhinovirus 4005; assay: Plaque inhibition in HeLa cells, rhinovirus 4005; conditions: Enterovirus, read-out: Minimum Inhibitory Concentration (MIC)
[10] = test system: Rhinovirus 1662; assay: Plaque inhibition in HeLa cells, rhinovirus 1662; conditions: Enterovirus, read-out: Minimum Inhibitory Concentration (MIC)
[11] = test system: Rhinovirus 6579; assay: Plaque inhibition in HeLa cells, rhinovirus 6579; conditions: Enterovirus, read-out: Minimum Inhibitory Concentration (MIC)
[12] = test system: Rhinovirus type 41; assay: Plaque inhibition in HeLa cells, rhinovirus type 41; conditions: Enterovirus, read-out: Minimum Inhibitory Concentration (MIC)
[13] = test system: Rhinovirus type 51; assay: Plaque inhibition in HeLa cells, rhinovirus type 51; conditions: for MIC: Enterovirus; for Plaque counts per plate: type 51, untreated 118
[14] = test system: Rhinovirus type 1A; assay: Plaque inhibition in HeLa cells, rhinovirus type 1A; conditions: for MIC: Enterovirus; for Plaque counts per plate: type 1A, untreated 211
[15] = test system: Rhinovirus type 1b; assay: Plaque inhibition in HeLa cells, rhinovirus type 1B; conditions: Enterovirus, read-out: Minimum Inhibitory Concentration (MIC)
[16] = test system: Rhinovirus type 15; assay: Plaque inhibition in HeLa cells, rhinovirus type 15; conditions: for MIC: Enterovirus; for Plaque counts per plate: type 15, untreated 145
[17] = test system: Rhinovirus type 2; assay: Plaque inhibition in HeLa cells, rhinovirus type 2; conditions: Enterovirus, read-out: Minimum Inhibitory Concentration (MIC)
[18] = test system: Rhinovirus 1492; assay: Plaque inhibition in HeLa cells, rhinovirus 1492; conditions: for MIC: Enterovirus; for Plaque counts per plate: 1492, untreated 255
[19] = test system: rhinovirus; assay: In vitro activity against rhinovirus strains (overall); format: cell-based; conditions: preferred compounds
[20] = test system: herpes simplex keratitis; conditions: topical treatment; cited from earlier work
[21] = test system: influenza A virus strains; conditions: prophylaxis and symptomatic treatment; cited from earlier work
[22] = read-out: Minimum Inhibitory Concentration (MIC)

SMILES: CN1C(=O)/C(=N\NC(N)=S)c2ccccc21 [Methisazone]
- Effectiveness for prevention of smallpox [1]: effective for the prevention of smallpox

SMILES: Cn1nc(NC(=O)CC2CCCC2)c2sc3ccccc3c21 [Example 62]
- MIC [2]: 2 µg/mL (≈ 6.38 µM)
- MIC [3, 22]: 2 µg/mL (≈ 6.38 µM)
- MIC [4, 22]: 6 µg/mL (≈ 19.1 µM)
- MIC [5]: 2 µg/mL (≈ 6.38 µM)
- MIC [6, 22]: 2 µg/mL (≈ 6.38 µM)
- MIC [7]: 2 µg/mL (≈ 6.38 µM)
- MIC [8, 22]: 4 µg/mL (≈ 12.8 µM)
- MIC [9]: 2 µg/mL (≈ 6.38 µM)
- MIC [10]: 8 µg/mL (≈ 25.5 µM)
- MIC [11]: 2 µg/mL (≈ 6.38 µM)
- MIC [12]: 2 µg/mL (≈ 6.38 µM)
- MIC [13, 22]: 8 µg/mL (≈ 25.5 µM)
- MIC [14, 22]: 6 µg/mL (≈ 19.1 µM)
- MIC [15]: 2 µg/mL (≈ 6.38 µM)
- MIC [16, 22]: 5 µg/mL (≈ 16 µM)
- MIC [17]: 2 µg/mL (≈ 6.38 µM)
- MIC [18, 22]: 2 µg/mL (≈ 6.38 µM)

SMILES: CC(C)CC(=O)Nc1nn(C)c2c1sc1ccccc12 [Example 64]
- MIC [2]: 4 µg/mL (≈ 13.9 µM)
- MIC [3, 22]: 1 µg/mL (≈ 3.48 µM)
- MIC [4, 22]: 1 µg/mL (≈ 3.48 µM)
- MIC [5]: 2 µg/mL (≈ 6.96 µM)
- MIC [6, 22]: 1 µg/mL (≈ 3.48 µM)
- MIC [7]: 2 µg/mL (≈ 6.96 µM)
- MIC [8, 22]: 1 µg/mL (≈ 3.48 µM)
- MIC [9]: 2 µg/mL (≈ 6.96 µM)
- MIC [10]: 2 µg/mL (≈ 6.96 µM)
- MIC [11]: 2 µg/mL (≈ 6.96 µM)
- MIC [12]: 2 µg/mL (≈ 6.96 µM)
- MIC [13, 22]: 2 µg/mL (≈ 6.96 µM)
- MIC [14, 22]: 1 µg/mL (≈ 3.48 µM)
- MIC [15]: 2 µg/mL (≈ 6.96 µM)
- MIC [16, 22]: 1 µg/mL (≈ 3.48 µM)
- MIC [17]: 2 µg/mL (≈ 6.96 µM)
- MIC [18, 22]: 2 µg/mL (≈ 6.96 µM)

SMILES: CCC(CC)(CC)C(=O)Nc1nn(C)c2c1sc1ccccc12
- Plaque counts per plate ([3]; 0.1 μg/ml): 65 Plaque counts per plate
- Plaque counts per plate ([3]; 0.5 μg/ml): 4 Plaque counts per plate
- Plaque counts per plate ([3]; 1.0 μg/ml): 0 Plaque counts per plate
- Plaque counts per plate ([3]; 2.0 μg/ml): 0 Plaque counts per plate
- MIC [3]: 1 µg/mL (≈ 3.04 µM)
- Plaque counts per plate ([4]; 0.1 μg/ml): 125 Plaque counts per plate
- Plaque counts per plate ([4]; 0.5 μg/ml): 20 Plaque counts per plate
- Plaque counts per plate ([4]; 1.0 μg/ml): 0 Plaque counts per plate
- Plaque counts per plate ([4]; 2.0 μg/ml): 0 Plaque counts per plate
- MIC [4]: 1 µg/mL (≈ 3.04 µM)
- Plaque counts per plate ([6]; 0.1 μg/ml): 103 Plaque counts per plate
- Plaque counts per plate ([6]; 0.5 μg/ml): 0 Plaque counts per plate
- Plaque counts per plate ([6]; 1.0 μg/ml): 0 Plaque counts per plate
- Plaque counts per plate ([6]; 2.0 μg/ml): 0 Plaque counts per plate
- MIC [6]: 0.5 µg/mL (≈ 1.52 µM)
- Plaque counts per plate ([8]; 0.1 μg/ml): 119 Plaque counts per plate
- Plaque counts per plate ([8]; 0.5 μg/ml): 0 Plaque counts per plate
- Plaque counts per plate ([8]; 1.0 μg/ml): 0 Plaque counts per plate
- Plaque counts per plate ([8]; 2.0 μg/ml): 0 Plaque counts per plate
- MIC [8]: 0.5 µg/mL (≈ 1.52 µM)
- Plaque counts per plate ([13]; 0.1 μg/ml): 211 Plaque counts per plate
- Plaque counts per plate ([13]; 0.5 μg/ml): 28 Plaque counts per plate
- Plaque counts per plate ([13]; 1.0 μg/ml): 0 Plaque counts per plate
- Plaque counts per plate ([13]; 2.0 μg/ml): 0 Plaque counts per plate
- MIC [13]: 1 µg/mL (≈ 3.04 µM)
- Plaque counts per plate ([14]; 0.1 μg/ml): 153 Plaque counts per plate
- Plaque counts per plate ([14]; 0.5 μg/ml): 60 Plaque counts per plate
- Plaque counts per plate ([14]; 1.0 μg/ml): 4 Plaque counts per plate
- Plaque counts per plate ([14]; 2.0 μg/ml): 0 Plaque counts per plate
- MIC [14]: 2 µg/mL (≈ 6.07 µM)
- Plaque counts per plate ([16]; 0.1 μg/ml): 61 Plaque counts per plate
- Plaque counts per plate ([16]; 0.5 μg/ml): 0 Plaque counts per plate
- Plaque counts per plate ([16]; 1.0 μg/ml): 0 Plaque counts per plate
- Plaque counts per plate ([16]; 2.0 μg/ml): 0 Plaque counts per plate
- MIC [16]: 0.5 µg/mL (≈ 1.52 µM)
- Plaque counts per plate ([18]; 0.1 μg/ml): 140 Plaque counts per plate
- Plaque counts per plate ([18]; 0.5 μg/ml): 12 Plaque counts per plate
- Plaque counts per plate ([18]; 1.0 μg/ml): 0 Plaque counts per plate
- Plaque counts per plate ([18]; 2.0 μg/ml): 0 Plaque counts per plate
- MIC [18]: 1 µg/mL (≈ 3.04 µM)
- Level of antirhinovirus activity [19]: high level of antirhinovirus activity

SMILES: Cn1nc(NC(=O)c2cccnc2)c2sc3ccccc3c21 [Example 66]
- MIC [2]: 2 µg/mL (≈ 6.49 µM)
- MIC [3, 22]: 2 µg/mL (≈ 6.49 µM)
- MIC [4, 22]: 8 µg/mL (≈ 25.9 µM)
- MIC [5]: 2 µg/mL (≈ 6.49 µM)
- MIC [6, 22]: 2 µg/mL (≈ 6.49 µM)
- MIC [7]: 2 µg/mL (≈ 6.49 µM)
- MIC [8, 22]: 6 µg/mL (≈ 19.5 µM)
- MIC [9]: 2 µg/mL (≈ 6.49 µM)
- MIC [10]: 8 µg/mL (≈ 25.9 µM)
- MIC [11]: 2 µg/mL (≈ 6.49 µM)
- MIC [12]: 2 µg/mL (≈ 6.49 µM)
- MIC [13, 22]: 6 µg/mL (≈ 19.5 µM)
- MIC [14, 22]: 5 µg/mL (≈ 16.2 µM)
- MIC [15]: 2 µg/mL (≈ 6.49 µM)
- MIC [16, 22]: 4 µg/mL (≈ 13 µM)
- MIC [17]: 2 µg/mL (≈ 6.49 µM)
- MIC [18, 22]: 6 µg/mL (≈ 19.5 µM)

SMILES: Nc1ncnc2c1ncn2[C@@H]1O[C@H](CO)[C@@H](O)[C@@H]1O [adenine arabinoside]
- Effectiveness in herpes simplex keratitis [20]: effective for the topical treatment of herpes simplex keratitis

SMILES: CCC(CC)C(=O)Nc1nn(C)c2c1sc1ccccc12 [Example 63, 2-ethyl-N-(1-methyl-1H-(1)benzothieno[3,2-c]pyrazol-3-yl)butanamide]
- MIC [2]: 2 µg/mL (≈ 6.64 µM)
- MIC [3, 22]: 0.5 µg/mL (≈ 1.66 µM)
- MIC [4, 22]: 1 µg/mL (≈ 3.32 µM)
- MIC [5]: 2 µg/mL (≈ 6.64 µM)
- MIC [6, 22]: 1 µg/mL (≈ 3.32 µM)
- MIC [7]: 2 µg/mL (≈ 6.64 µM)
- MIC [8, 22]: 0.5 µg/mL (≈ 1.66 µM)
- MIC [9]: 2 µg/mL (≈ 6.64 µM)
- MIC [10]: 1 µg/mL (≈ 3.32 µM)
- MIC [11]: 2 µg/mL (≈ 6.64 µM)
- MIC [12]: 2 µg/mL (≈ 6.64 µM)
- MIC [13, 22]: 1 µg/mL (≈ 3.32 µM)
- MIC [14, 22]: 1 µg/mL (≈ 3.32 µM)
- MIC [15]: 2 µg/mL (≈ 6.64 µM)
- MIC [16, 22]: 0.5 µg/mL (≈ 1.66 µM)
- MIC [17]: 2 µg/mL (≈ 6.64 µM)
- MIC [18, 22]: 1 µg/mL (≈ 3.32 µM)
- Level of antirhinovirus activity [19]: high level of antirhinovirus activity

SMILES: Cn1nc(NC(=O)C(C)(C)C)c2sc3ccccc3c21 [2,2-dimethyl-N-(1-methyl-1H-(1)benzothieno[3,2-c]pyrazol-3-yl)propanamide]
- Level of antirhinovirus activity [19]: high level of antirhinovirus activity

SMILES: Cl.NC12CC3CC(CC(C3)C1)C2 [1-aminoadamantane hydrochloride]
- Effectiveness against illness caused by influenza A virus [21]: effective for the prophylaxis and symptomatic treatment of illness caused by influenza A virus strains

SMILES: O=c1[nH]c(=O)n([C@H]2C[C@H](O)[C@@H](CO)O2)cc1I [Idoxuridine]
- Effectiveness in herpes simplex keratitis [20]: effective for the topical treatment of herpes simplex keratitis

SMILES: CC(=O)Nc1nn(C)c2c1sc1ccccc12 [Example 65, N-(1-methyl-1H-(1)benzothieno[3,2-c]pyrazol-3-yl)-acetamide]
- MIC [2]: 2 µg/mL (≈ 8.15 µM)
- MIC [3, 22]: 8 µg/mL (≈ 32.6 µM)
- MIC [4, 22]: 8 µg/mL (≈ 32.6 µM)
- MIC [5]: 5 µg/mL (≈ 20.4 µM)
- MIC [6, 22]: 8 µg/mL (≈ 32.6 µM)
- MIC [7]: 4 µg/mL (≈ 16.3 µM)
- MIC [8, 22]: 4 µg/mL (≈ 16.3 µM)
- MIC [9]: 2 µg/mL (≈ 8.15 µM)
- MIC [10]: 10 µg/mL (≈ 40.8 µM)
- MIC [11]: 5 µg/mL (≈ 20.4 µM)
- MIC [12]: 2 µg/mL (≈ 8.15 µM)
- MIC [13, 22]: 8 µg/mL (≈ 32.6 µM)
- MIC [14, 22]: 8 µg/mL (≈ 32.6 µM)
- MIC [15]: 6 µg/mL (≈ 24.5 µM)
- MIC [16, 22]: 5 µg/mL (≈ 20.4 µM)
- MIC [17]: 4 µg/mL (≈ 16.3 µM)
- MIC [18, 22]: 8 µg/mL (≈ 32.6 µM)
